The test system of experiment [1] is Cobra-Venom-Factor (CVF)-oedema. Put plainly: CVF-oedema test (inflammation-inhibiting activity). The note with it: po, read-out: ED50 values in CVF-oedema. The format is in vivo.
Experiment [2] relates to CVF-oedema, carragenine-test. The note with it: S. Leyck et al., Agents and Actions 13, 437-438 (1983); cited from earlier work.

The term ED50 denotes the midpoint of the dose-response relation.

`CC(C)C(C(=O)O)n1[se]c2ccccc2c1=O` (racemic) [DL-2-(1,2-Benzisoselenazole-3(2H)-one-2-yl)-3-methylbutyric acid]: the 50% effective dose (ED50) in experiment [1] amounted to 5 mg/kg.

In the case of `O=C1CCN(c2ccccc2)N1` [phenidone], the “inhibiting effect in CVF-oedema-test as compared with carragenine-test” value in experiment [2] is “more significant inhibiting effect in CVF-oedema-test as in carragenine-test”.

With `c1ccc([C@H]2CN3CCSC3=N2)cc1` [levamisole], the “inhibiting effect in CVF-oedema-test as compared with carragenine-test” value in experiment [2] is reported as “more significant inhibiting effect in CVF-oedema-test as in carragenine-test”.
